Patent US11090247B2, “Compositions for protecting the skin from heavy metals and formaldehyde” (FNG RESEARCH CO., LTD., priority 2016, dated 2021)

Tests used:
[1] = Removal test of heavy metals of active ingredients (pig skin, ICP-MS): Pb; conditions: contaminated pig skin
Description: (§1) (1) Preparation of Heavy Metal Contamination Sources and Pig Skin Samples
(§2) A pig was slaughtered, flayed and the bristle was shaved. The pig skin was cut to prepare 5*5 cm size of skin samples respectively.
(§3) The said skin samples were cleanly wiped with wet gauze, and then, added to 50 ml of methanol and extracted by shaking with ultrasonic for 60 min. 50 ml of methanol was further added and mixed. The pig skin samples were removed from the extracted solutions to prepare the test solutions.
(§4) The test solutions were analyzed for heavy metal components using an inductively coupled plasma mass spectrometer (ICP-MS, Xseries™ 2, Thermo Fisher Scientific, UK).

[2] = Removal test of heavy metals of active ingredients (pig skin, ICP-MS): Cu; conditions: contaminated pig skin
Description: as §1, §2, §3, §4

[3] = Removal test of heavy metals of active ingredients (pig skin, ICP-MS): Cd; conditions: contaminated pig skin
Description: as §1, §2, §3, §4

[4] = Formaldehyde removing ability test (GC); conditions: 2.0% formaldehyde solution; for Area (mAU*min) 30 min: formaldehyde GC area after 30 min; for Area (mAU*min) 30 min / Area (mAU*min) 180 min: 3 molar equivalents, room temperature; for Area (mAU*min) 180 min: formaldehyde GC area after 180 min; for Area (mAU*min) Initial: formaldehyde GC area, initial state, 3 molar equivalents of compound
human skin = test: Skin irritation test of active ingredient (patch method, CTFA guidelines); assay type: in vivo; set-up: key to Degree of irritation: 0–0.1 none, 0.11–0.3 weak, 0.31–0.5 moderate, ≥0.51 strong irritation; conditions: 20 people, patch 24 hours; for Test result(number of subject) (+): (+): Apparent reddening than periphery; for Test result(number of subject) (++): (++): More reddened and swollen than periphery; for Test result(number of subject) (±): (±): slightly reddish than the periphery; for Test result(number of subject) (−): (−): No erythema or particularly no symptoms
Description: A total of 20 people (10 men and 10 women in their 20 s and 30 s) were tested for skin irritation using the patch method according to the guidelines of CTFA (The Cosmetic, Toiletry & Fragrance Association, Inc. Washington, D.C.).
A filter paper disk was placed in an 8 mm diameter, 10 panels of pin chamber.
After 24 hours, the pin chamber was removed, and skin conditions were visually observed.
[Criteria for Skin Irritation]
(−): No erythema or particularly no symptoms; (±): slightly reddish than the periphery; (+): Apparent reddening than periphery; (++): More reddened and swollen than periphery.
[Grade for Skin Irritation]
Degree of irritation 0-0.1: Grade I (unstimulated);
Degree of irritation 0.11-0.3: Grade II (weakly stimulated);
Degree of irritation 0.31-0.5: Grade III (moderately stimulated);
Degree of irritation 0.51 or more: Grade IV (strongly stimulated)

For `O=C(O)CN(CCN(CC(=O)O)CC(=O)O)CC(=O)O` [1(EDTA), Ethylenediaminetetraacetic acid, reference compound], the “Removal of Heavy metals Pb (%)” value ([1]; 0.1 wt % aqueous solution) was 84.3%, the “Removal of Heavy metals Pb (%)” value ([1]; 0.5 wt % aqueous solution) was 88.3% and the “Removal of Heavy metals Pb (%)” value ([1]; 1.0 wt % aqueous solution) was 89.6%. For the same compound, the “Removal of Heavy metals Cu (%)” value ([2]; 0.1 wt % aqueous solution) was 86.5%, the “Removal of Heavy metals Cu (%)” value ([2]; 0.5 wt % aqueous solution) was 88.6% and the “Removal of Heavy metals Cu (%)” value ([2]; 1.0 wt % aqueous solution) was 89.2%. The “Removal of Heavy metals Cd (%)” value ([3]; 0.1 wt % aqueous solution) was 82.3%, the “Removal of Heavy metals Cd (%)” value ([3]; 0.5 wt % aqueous solution) was 87.3% and the “Removal of Heavy metals Cd (%)” value ([3]; 1.0 wt % aqueous solution) was 88.3%.

With `C1CNCCNCCNCCN1` [Cyclen, 1,4,7,10-tetraazacyclododecane] the “Removal of Heavy metals Pb (%)” value ([1]; 0.1 wt % aqueous solution) was 91.7%, the “Removal of Heavy metals Pb (%)” value ([1]; 0.5 wt % aqueous solution) was 93.7% and the “Removal of Heavy metals Pb (%)” value ([1]; 1.0 wt % aqueous solution) was 94.3%. The “Area (mAU*min) 30 min” value [4] was 0.181 mAU*min, the “Area (mAU*min) 180 min” value [4] was 0 mAU*min and the “Area (mAU*min) Initial” value [4] was 0.305 mAU*min. The “Removal of Heavy metals Cu (%)” value ([2]; 0.1 wt % aqueous solution) was 93.1%, the “Removal of Heavy metals Cu (%)” value ([2]; 0.5 wt % aqueous solution) was 96.6% and the “Removal of Heavy metals Cu (%)” value ([2]; 1.0 wt % aqueous solution) was 97.8%. The Degree of irritation (human skin; 0.1 wt %) was 0, the Grade (human skin; 0.1 wt %) was “I (Degree of irritation 0-0.1: Grade I (unstimulated))” and the “Test result(number of subject) (+)” value (human skin; 0.1 wt %) was 0. The “Test result(number of subject) (++)” value (human skin; 0.1 wt %) was 0, the “Test result(number of subject) (±)” value (human skin; 0.1 wt %) was 0 and the “Test result(number of subject) (−)” value (human skin; 0.1 wt %) was 20. For the same compound, the Degree of irritation (human skin; 0.5 wt %) was 0, the Grade (human skin; 0.5 wt %) was “I (Degree of irritation 0-0.1: Grade I (unstimulated))” and the “Test result(number of subject) (+)” value (human skin; 0.5 wt %) was 0. The “Test result(number of subject) (++)” value (human skin; 0.5 wt %) was 0, the “Test result(number of subject) (±)” value (human skin; 0.5 wt %) was 0 and the “Test result(number of subject) (−)” value (human skin; 0.5 wt %) was 20. The Degree of irritation (human skin; 1.0 wt %) was 0.15, the Grade (human skin; 1.0 wt %) was “II (Degree of irritation 0.11-0.3: Grade II (weakly stimulated))” and the “Test result(number of subject) (+)” value (human skin; 1.0 wt %) was 1. The “Test result(number of subject) (++)” value (human skin; 1.0 wt %) was 0, the “Test result(number of subject) (±)” value (human skin; 1.0 wt %) was 1 and the “Test result(number of subject) (−)” value (human skin; 1.0 wt %) was 18. The “Removal of Heavy metals Cd (%)” value ([3]; 0.1 wt % aqueous solution) was 88.6%, the “Removal of Heavy metals Cd (%)” value ([3]; 0.5 wt % aqueous solution) was 91.1% and the “Removal of Heavy metals Cd (%)” value ([3]; 1.0 wt % aqueous solution) was 91.4%.

With `O=C(O)CN(CCN(CCN(CC(=O)O)CC(=O)O)CC(=O)O)CCN(CC(=O)O)CC(=O)O` [Embodiment 1, 3,6,9,12-tetrakis(carboxymethyl)-3,6,9,12-tetraazatetradecanedioic acid] the “Removal of Heavy metals Pb (%)” value ([1]; 0.1 wt % aqueous solution) was 91.1%, the “Removal of Heavy metals Pb (%)” value ([1]; 0.5 wt % aqueous solution) was 92.0% and the “Removal of Heavy metals Pb (%)” value ([1]; 1.0 wt % aqueous solution) was 92.1%. For the same compound, the “Area (mAU*min) 30 min” value [4] was 0.170 mAU*min, the “Area (mAU*min) 180 min” value [4] was 0 mAU*min and the “Area (mAU*min) Initial” value [4] was 0.305 mAU*min. The “Removal of Heavy metals Cu (%)” value ([2]; 0.1 wt % aqueous solution) was 95.2%, the “Removal of Heavy metals Cu (%)” value ([2]; 0.5 wt % aqueous solution) was 97.3% and the “Removal of Heavy metals Cu (%)” value ([2]; 1.0 wt % aqueous solution) was 97.5%. For the same compound, the Degree of irritation (human skin; 0.1 wt %) was 0, the Grade (human skin; 0.1 wt %) was “I (Degree of irritation 0-0.1: Grade I (unstimulated))” and the “Test result(number of subject) (+)” value (human skin; 0.1 wt %) was 0. The “Test result(number of subject) (++)” value (human skin; 0.1 wt %) was 0, the “Test result(number of subject) (±)” value (human skin; 0.1 wt %) was 0 and the “Test result(number of subject) (−)” value (human skin; 0.1 wt %) was 20. For the same compound, the Degree of irritation (human skin; 0.5 wt %) was 0.05, the Grade (human skin; 0.5 wt %) was “I (Degree of irritation 0-0.1: Grade I (unstimulated))” and the “Test result(number of subject) (+)” value (human skin; 0.5 wt %) was 0. The “Test result(number of subject) (++)” value (human skin; 0.5 wt %) was 0, the “Test result(number of subject) (±)” value (human skin; 0.5 wt %) was 1 and the “Test result(number of subject) (−)” value (human skin; 0.5 wt %) was 19. The Degree of irritation (human skin; 1.0 wt %) was 0.20, the Grade (human skin; 1.0 wt %) was “II (Degree of irritation 0.11-0.3: Grade II (weakly stimulated))” and the “Test result(number of subject) (+)” value (human skin; 1.0 wt %) was 0. For the same compound, the “Test result(number of subject) (++)” value (human skin; 1.0 wt %) was 0, the “Test result(number of subject) (±)” value (human skin; 1.0 wt %) was 4 and the “Test result(number of subject) (−)” value (human skin; 1.0 wt %) was 16. The “Removal of Heavy metals Cd (%)” value ([3]; 0.1 wt % aqueous solution) was 91.0%, the “Removal of Heavy metals Cd (%)” value ([3]; 0.5 wt % aqueous solution) was 93.0% and the “Removal of Heavy metals Cd (%)” value ([3]; 1.0 wt % aqueous solution) was 94.1%.

For `O=C(O)c1ccc(N(CCN(CCN(c2ccc(C(=O)O)cc2)c2ccc(C(=O)O)cc2)c2ccc(C(=O)O)cc2)CCN(c2ccc(C(=O)O)cc2)c2ccc(C(=O)O)cc2)cc1` [Embodiment 2, 4,4′,4″,4′″-(((ethane-1,2-diylbis((4-carboxyphenyl)azanediyl))bis(ethane-2,1-diyl))bis(azanetriyl))tetrabenzoic acid], the “Removal of Heavy metals Pb (%)” value ([1]; 0.1 wt % aqueous solution) was 86.4%, the “Removal of Heavy metals Pb (%)” value ([1]; 0.5 wt % aqueous solution) was 88.6% and the “Removal of Heavy metals Pb (%)” value ([1]; 1.0 wt % aqueous solution) was 89.0%. The “Area (mAU*min) 30 min” value [4] was 0.168 mAU*min, the “Area (mAU*min) 180 min” value [4] was 0 mAU*min and the “Area (mAU*min) Initial” value [4] was 0.305 mAU*min. The “Removal of Heavy metals Cu (%)” value ([2]; 0.1 wt % aqueous solution) was 93.5%, the “Removal of Heavy metals Cu (%)” value ([2]; 0.5 wt % aqueous solution) was 95.8% and the “Removal of Heavy metals Cu (%)” value ([2]; 1.0 wt % aqueous solution) was 96.9%. For the same compound, the Degree of irritation (human skin; 0.1 wt %) was 0, the Grade (human skin; 0.1 wt %) was “I (Degree of irritation 0-0.1: Grade I (unstimulated))” and the “Test result(number of subject) (+)” value (human skin; 0.1 wt %) was 0. For the same compound, the “Test result(number of subject) (++)” value (human skin; 0.1 wt %) was 0, the “Test result(number of subject) (±)” value (human skin; 0.1 wt %) was 0 and the “Test result(number of subject) (−)” value (human skin; 0.1 wt %) was 20. For the same compound, the Degree of irritation (human skin; 0.5 wt %) was 0, the Grade (human skin; 0.5 wt %) was “I (Degree of irritation 0-0.1: Grade I (unstimulated))” and the “Test result(number of subject) (+)” value (human skin; 0.5 wt %) was 0. For the same compound, the “Test result(number of subject) (++)” value (human skin; 0.5 wt %) was 0, the “Test result(number of subject) (±)” value (human skin; 0.5 wt %) was 0 and the “Test result(number of subject) (−)” value (human skin; 0.5 wt %) was 20. The Degree of irritation (human skin; 1.0 wt %) was 0.05, the Grade (human skin; 1.0 wt %) was “I (Degree of irritation 0-0.1: Grade I (unstimulated))” and the “Test result(number of subject) (+)” value (human skin; 1.0 wt %) was 0. The “Test result(number of subject) (++)” value (human skin; 1.0 wt %) was 0, the “Test result(number of subject) (±)” value (human skin; 1.0 wt %) was 1 and the “Test result(number of subject) (−)” value (human skin; 1.0 wt %) was 19. The “Removal of Heavy metals Cd (%)” value ([3]; 0.1 wt % aqueous solution) was 87.3%, the “Removal of Heavy metals Cd (%)” value ([3]; 0.5 wt % aqueous solution) was 89.7% and the “Removal of Heavy metals Cd (%)” value ([3]; 1.0 wt % aqueous solution) was 90.5%.
